From US20220152117A1, “METHODS OF PROMOTING CELLULAR MATURATION WITH AMPK ACTIVATORS” (UNIVERSITY OF WASHINGTON, priority 2019, published 2022)
Where “and” joins values, the source holds several entries; their conditions need not be identical. Equal entries are not always repeated. Entries after “also recorded” stand apart in the source; their conditions may differ.

Tests used:
Type in all cases: cell-based, human
hPSC-CMs [1] = assay: Western blotting with phospho-specific antibodies (pACC, pAMPK, pAkt, pERK, p-p38-MAPK)
Experimental: Total protein was acquired from control cardiomyocytes or cardiomyocytes after two weeks of AICAR treatment and subjected to SDS-PAGE. The lanes were loaded with equal amount of protein and were checked by Ponceau S staining. After blocking with 5% milk, the membranes were incubated with anti-pACC ([…]) rabbit polyclonal antibody (Cell Signaling Technology), anti-pAMPK, anti-pAkt, anti-pERK, anti-p38-MAPK, or anti-GAPDH mouse monoclonal antibody (Abcam) overnight while shaking at 4° C. After incubation with anti-rabbit (for pACC) and anti-mouse (for GAPDH, pAMPK, pAkt, pERK, and p-p38-MAPK) horseradish peroxidase-coupled secondary antibody (Santa Cruz Biotechnology®), bands were visualized with SuperSignal West Femto Trial KitTM (Thermo Scientific®). The immunoblots band densities were analyzed in Image J.

hPSC-CMs [2] = assay: Mitochondrial oxidation of palmitate, Seahorse XF96 extracellular flux palmitate-albumin assay; settings: 1 mM AICAR for 2 weeks
Experimental: The Seahorse XF96 extracellular flux Analyzer™ was used to assess the fatty acid oxidation capacity of the hPSC-CMs. XF96 plates were pre-treated with fibronectin at a concentration of 1 μg/cm^2. At around 20 days after induction of differentiation, the cardiomyocytes were seeded onto the XF96 plates at a density of 30,000 cells per well (2,500/mm^2). The cells were treated with 1 mM AICAR for two weeks before the palmitate-albumin assay. An hour prior to performing this assay, culture medium was exchanged for basal media (unbuffered DMEM, Sigma D5030, supplemented with 2 mM glutamine, 1 mM pyruvate, 25 mM glucose, and 400 μM carnitine). Palmitate-albumin complexes were made following the Seahorse Bioscience protocol. Substrates were injected during the measurements to achieve two spike concentrations of palmitate-albumin at 200 μM each. The oxygen consumption rates (OCR values) were further normalized to the number of cells present in each well, quantified by staining with Hoechst 33342 (Sigma-Aldrich) as measured using fluorescence at 355 nm excitation and 460 nm emission. The highest OCR values induced by palmitate-albumin were used for statistics. Due to variations in the absolute magnitude of OCR measurements in different experiments, the relative AICAR treated/untreated control levels were used to compare and summarize independent biological replicates (N=7).

hiPS-HLCs = assay: RT-PCR of hepatic and mitochondrial-related genes in hepatocyte-like cells
Experimental: Undifferentiated human IMR90-induced pluripotent stem cells, originally derived from lung fibroblasts^22 (James A. Thomson, University of Wisconsin-Madison), were expanded using mouse embryonic fibroblast-conditioned medium supplemented with 5 ng/ml basic fibroblast growth factor. Cardiomyocytes were obtained using a previously described protocol^2 that involves the serial application of activin A and bone morphogenetic protein-4 (BMP4) under serum-free, monolayer culture conditions. The cultures were also supplemented with the Wnt agonist CHIR99021 in the early stages of differentiation followed by the Wnt antagonist Xav939. In this study, cardiomyocytes derived from human undifferentiated IMR90-induced stem cells were used, and for brevity, these are referred to human induced pluripotent stem cell-derived cardiomyocytes (hiPSC-CM). After 20 days of in vitro differentiation, the cells were dispersed using 0.05% trypsin-EDTA and re-plated. Cultures were fed every other day thereafter with serum-free RPMI-B27 plus insulin. Only cell preparations containing >80% cardiac troponin T-positive cardiomyocytes (by flow cytometry) were used for the current investigation. Twenty days after induction, cells were re-plated at different densities based on experimental purposes (described below). Cells were treated with 1 mM AICAR for two weeks (unless otherwise mentioned specifically), with media being changed every other day. This study was mainly performed with cardiomyocytes-derived from IMR90 iPS cell line. However, cardiomyocytes-derived from another iPS cell line, WTC11 iPS cells^22, and a human embryonic stem cell line (hESC), RUES2 cells, were also used for some of the experiments. Rues and WTC undifferentiated cells were cultured with mTeSR medium. Similar differentiation protocols as to IMR90 were used to obtain cardiomyocytes from Rues and WTC cells. Only cell preparations containing >80% cardiac troponin T-positive cardiomyocytes (by flow cytometry) were used for the current investigation. Undifferentiated iPSCs were maintained on StemAdhere™ (Primorigin Biosciences®) with mTesR medium supplemented with bFGF. The formation of hepatocyte-like cells from iPSCs was achieved as described previously^24,25. Briefly, cells were induced to form endoderm by addition of 100 ng/ml Activin A, 10 ng/ml BMP4, and 20 ng/ml FGF2 for two days followed by 100 ng/ml Activin A for an additional three days. Hepatic progenitor cells were formed by supplementing the medium with 20 ng/ml BMP4 and 10 ng/ml FGF2. Next, 20 ng/ml HGF was added between days 10 and 15 and induced maturation of the hepatocytes by culturing the cells in HCM medium (Lonza®) containing 20 ng/ml Oncostatin M until day 20. In some experiments, the differentiation medium was supplemented with 1.0 mM AICAR between days 15 and 20. hiPSC-derived neurons were generated following previously published protocols^26, 27, 28. Briefly, hiPSCs from a control individual^28 and from a patient with the duplication of the amyloid precursor protein (APP) gene^27 were cultured on mouse embryonic fibroblasts in the presence of 20 ng/ml bFGF (Peprotech®). Neural stem cells were generated by hiPSC co-culture on the mouse stromal cell line PA6 in the presence of 0.5 ug/ml Noggin (Peprotech®) and 10 uM SB431542 (Peprotech®). After 12 days, neural rosettes were dissociated and FACS sorted for the cell surface markers CD184/CD24^+; CD44/CD271^−. Neural stem cells were propagated in 20 ng/ml bFGF and neuronal differentiation was induced by the withdrawal of bFGF and the addition of 20 ng/ml BDNF (Peprotech®), 20 ng/ml GDNF (Peprotech®), […] dbCAMP (Peprotech®).
Total RNA was isolated using the Qiagen RNeasy Kit™, and mRNA was reverse transcribed using the Superscript™ III first strand cDNA synthesis kit (Invitrogen®). All primers were purchased from Real Time Primers, and qRT-PCR was performed using SYBR™ green chemistry and an ABI 7900HT instrument or TAQMAN™ with BIORad CXF384™. […]

[3] = HLCs treated at day 20 with 1 mM AICAR for additional seven days

Q: How did the phopho-p38-MAPK (hPSC-CMs [1]; 1 mM AICAR, time course) turn out when `NC(=O)c1ncn([C@@H]2O[C@H](CO)[C@@H](O)[C@H]2O)c1N` [AICAR, 5-amino-4-imidazolecarboxamide riboside-1-β-D-ribofuranoside] was run?
A: Transient increases

Q: What about the phospho-ERK (hPSC-CMs [1]; 1 mM AICAR, time course) of the same compound?
A: Transient increases

Q: What about the phospho-Thr172-AMPK phosphorylation (hPSC-CMs [1]; 1 mM AICAR, time course) of the same compound?
A: rapid robust transient

Q: What about the “phosphorylation of Akt at Ser473” value (hPSC-CMs [1]; 1 mM AICAR, time course) of the same compound?
A: increased

Q: What about the “phosphorylation of Ser79-ACC” value (hPSC-CMs [1]; 1 mM AICAR, time course) of the same compound?
A: rapid, time-dependent increase

Q: What about the “phospho-ACC (Ser 79) level by immunoblot vs control cells” value (hPSC-CMs [1]; two weeks of AICAR treatment, same exposure conditions) of the same compound?
A: more than one thousand-fold increase

Q: And the “increase in oxygen consumption rate (OCR) upon palmitate-albumin introduction” value (hPSC-CMs [2])?
A: 2.32±0.12 fold and ~2.3 fold

Q: What about the “HNF4α expression, treatment day 15 to 17” value (hiPS-HLCs; 1 mM AICAR day 15 to 17) of the same compound?
A: significantly down-regulated

Q: What about the “other mature hepatic-related genes (SLC10A1, APOH, ASGR, APOB, and PXR)” value (hiPS-HLCs; 1 mM AICAR day 15 to 17) of the same compound?
A: no significant difference

Q: And the “AFP expression, treatment day 15 to 17” value (hiPS-HLCs; 1 mM AICAR day 15 to 17, endpoint day 20)?
A: diminished; also recorded: significantly reduced

Q: And the “ALB expression, treatment day 15 to 17” value (hiPS-HLCs; 1 mM AICAR day 15 to 17, endpoint day 20, b310 calls the change non-significant)?
A: enhanced

Q: What about the “ALB expression, longer treatment” value (hiPS-HLCs; 1 mM AICAR, longer treatment between days 15 and 20, endpoint day 20) of the same compound?
A: adversely affected

Q: What about the “PDK4 expression in HLCs” value (hiPS-HLCs; [3]) of the same compound?
A: significantly increased

Q: What about the “PGC1α, ERRa, PPARα, TFAM and HNF4α expression in HLCs” value (hiPS-HLCs; [3]) of the same compound?
A: no significant effect
